Square brackets hold non-standard residues; d marks the D form. Peptide text beside a SMILES is read from it. Phe(4-F) = N[C@@H](Cc1ccc(F)cc1)C(=O)O; Dopa = N[C@@H](Cc1ccc(O)c(O)c1)C(=O)O

A short description of series [1]: AFM topography of mica coated with the peptides. Format: physicochemical. To be noted: coated mica substrate, 0.5 mg/mL in methanol overnight. As to the method: Freshly cleaved mica surfaces were dipped overnight in different peptide solution at a concentration of 0.5 mg/mL in methanol. Then, the surfaces were washed with fresh methanol and dried under N2.
Series [2] is described as follows: Coating thickness by ellipsometry (Cauchy model). To be noted: Cauchy film model. It counts as physicochemical. The procedure: The thickness of the peptide-based coating was measured using α-SE spectroscopic ellipsometer (J. A. Woollam, Lincoln, Nebr., USA). […] The thickness of the layers and refractive indices were fitted according to the Cauchy model. The coefficients of the Cauchy equation were initially fixed for organic layers (An=1.45, Bn=0.01 and Cn=0), and an angle offset was permitted. Then, the parameters were allowed to be fitted to determine more accurate values.

Series [3] is described as follows: Layer thickness on Ti evaluated by XPS. It counts as physicochemical. To be noted: Ti substrates, prolonged incubation. The procedure: The X-ray Photoelectron Spectroscopy (XPS) measurements were performed using a Kratos AXIS Ultra X-ray photoelectron spectrometer (Kratos Analytical Ltd., Manchester, UK). Spectra were acquired using the A1-Kα monochromatic X-ray source (1,486.7 eV). Sample take-off angle was 90° (i.e. normal to the analyzer). The vacuum pressure in the analyzing chamber maintained to 2·10^-9 Torr. […] Data analyses were done using the Kratos Vision data reducing processing software (Kratos Analytical Ltd.) and […] Software Ltd.). Using the XPS measurements, it is possible to calculate the thickness of the assembled layers. We have done so using the standard attenuation relations of the photoelectrons emerging from different sample depths. The thickness calculation is based on the Briggs et al. method and others. For the Au substrate, the overlay thickness d (nm) expressed as: […] Calculated, using S. Tougard […] software (http://www.quases.com). Inelastic electron mean free path calculated from the Tanuma, Powell and Penn algorithm [Penn, 1994].

Series [4] is described as follows: QCM-D real-time adhesion of peptides to Ti sensor (Sauerbrey model). To be noted: QCM-D on Ti sensor, 0.5 mg/mL in MeOH, 40 minutes. The procedure:
QCM-D (Q-sense, Biolin Scientific) was used for the study of peptide adhesion onto Ti surface. Measurements were performed in a flow module E1 system. Ti sensors with a fundamental resonant frequency of 5 MHz were also purchased from Q-sense and used as supplied. Prior to each experiment Ti sensors were cleaned with Oxygen/Plasma (Atto, Diener Electronic), followed by rinsing with 2% SDS and TDW and finally dried under N2. All QCM-D experiments were performed under flow-through conditions using a digital peristaltic pump ([…] Peristaltic Pump, IDEX) operating in pushing mode. The studied solutions were injected to the sensor crystal chamber at a rate of 0.1 mL/min. Organic solvent compatible tube and O-ring were used for the flow system. Peptides were dissolved in MeOH to a concentration of 0.5 mg/mL. The data were fitted with Sauerbrey model. According to this model the mass of adhering layer is calculated as […]

The nature of series [5]: XPS, SEM and AFM of f-DOPA films. Format: physicochemical. The procedure:
After 12 h, the substrate was washed with acetonitrile, and the coating process was repeated with a fresh f-DOPA solution.

Series [6] is described as follows: Dynamic water contact angles, tilting-plate method. Format: physicochemical. To be noted: gold substrate after coating. As to the method:
(§1) The wetting properties were further investigated by the tilting-plate method that measured the dynamic contact angles, because it was essential in the confirmation of self-cleaning properties to investigate the dynamic water contact angles and surface free energies. The advancing (yadv) and receding (yrec) water contact angles of f-DOPA-coated substrates were measured, and the contact angle hysteresis (i.e., (yadv-yrec)) of each substrate was calculated. […] A water droplet on the substrate easily rolled off at a tilt angle of 5.31, which is clear evidence of self-cleaning properties. […] In addition, the surface free energy (gS) was calculated based on the Owens-Wendt geometric mean equation that divides the surface free energy into the dispersive (gDS) and polar (gPS) ones.

Series [7] in a line: Surface free energy, Owens-Wendt geometric mean equation. It counts as physicochemical. To be noted: f-DOPA-coated gold surface; water and diiodomethane. The procedure: as §1
The surface free energy (gS; gS=gDS+gPS) of each surface was determined by measuring the contact angles with water and diiodomethane (CH2I2). The surface free energy of the f-DOPA-coated gold surface was calculated to be 0.279 mJ m^−2, and the other substrates have the surface free energies between 0.2 and 0.9 mJ m^−2. These values are extremely low, probably because of both the structural roughness and the incorporated perfluoro groups. For comparison, the surface free energy of a smooth surface modified with CF3 groups in hexagonal close packing was reported to be 6.7 mJ m^−2. […]

Series [8] in a line: Contact angle measurements of peptide-coated surfaces. Format: physicochemical. To be noted: titanium substrate coated with peptide; bare 43.2°; 0.5 mg/mL in methanol. The procedure:
The clean surfaces were dipped in a peptide solution (0.5 mg/mL in methanol) and left for overnight at RT. Then, they were rinsed extensively with methanol and dried under nitrogen. Contact angle measurements were carried out using a Theta Lite optical tensiometer (Attension, Finland). Each experimental measurement consisted of three repeats, and the reported angles were averaged. […] We chose this concentration of peptide since it formed a substantial coating that gave a good signal in various characterization methods. After incubation, we thoroughly washed the substrate with methanol and dried it under nitrogen. Due to the hydrophobic moieties of the peptides, water could not be used as a solvent system despite its high polarity. We used methanol as the solvent since it dissolved the peptide completely, and at the same time allowed it to adhere the substrate. Since methanol is a toxic solvent, we also examined other solvents with different polarities.

Take `COC(=O)[C@H](Cc1ccc(F)cc1)NC(=O)[C@@H](N)Cc1ccc(O)c(O)c1` [Peptide 6, NH2-L-DOPA-L-(4F) Phe-COOMe] (H-[Dopa]-[Phe(4-F)]-OMe): the “height of spherical-like aggregates (AFM)” value (from here on “height”) in series [1] is on record as 1.02-3.65 nm. For the same compound, the “thickness of the coating by ellipsometry” value in series [2] worked out at 3.66±0.04 nm. Besides, in series [3], the “average thickness of the peptide layer evaluated by XPS” value (“average thickness” for short) turned out to be 3.82±0.04 nm. In series [4], the Density is 805 Kg/m^3, the Mass/Area turned out to be 13 ± 2 ng/cm^2 and the Thickness is 1.7 ± Å.
Compound `NC(Cc1ccc(O)c(O)c1)C(=O)OCCC(F)(F)C(F)(F)C(F)(F)C(F)(F)C(F)(F)C(F)(F)C(F)(F)C(F)(F)F` (centres unmarked) [f-DOPA] gave a film thickness in series [5] (f-DOPA coating on gold, from disappearance of Au XPS peaks) of at least 10 nm. In addition, in series [5] (f-DOPA film), the “root-mean-square roughness (AFM)” value is reported as 533.92 nm. Also, in series [6], the contact angle hysteresis was determined as 9.91 and the “tilt angle at which a water droplet rolled off” value is reported as 5.31. This compound also showed a surface free energy in series [7] of 0.279 mJ m^−2.
With “NH2-DOPA-L-(F5)Phe(2)-L-(F5)Phe(3)-COOMe [Peptide 5]”, the “height” value in series [1] was 1.00-5.00 nm. In series [2], the “thickness of the coating by ellipsometry” value was 5.2±0.1 nm. In series [3], the “average thickness” value amounted to 4.2±0.1 nm. For the same compound, in series [4], the Density came out at 717 Kg/m^3, the Mass/Area was found to be 27 ± 3 ng/cm^2 and the Thickness is 3.4 ± Å.
For the compound “NH2-L-DOPA-D-(4F)Phe(2)-D-(4F)Phe(3)-COOMe [Peptide 4]”, the “height” value in series [1] was 0.32-0.65 nm. Moreover, the “average thickness” value in series [3] is listed as 4.41±0.03 nm. In series [4], this compound yielded a Density of 769 Kg/m^3, a Mass/Area of 45 ± 2 ng/cm^2 and a Thickness of 5.6 ± 0.3 Å.
On the same counts, the results for “NH2-L-DOPA-D-(4F)Phe(2)-L-(4F)Phe(3)-COOMe [Peptide 3]” are 0.20-2.30 nm, 3.9±0.1 nm, 760 Kg/m^3, 43 ± 4 ng/cm^2 and 5.4 ± 0.5 Å.
As to “NH2-L-DOPA-L(4F)-Phe(2)-L(4F)-Phe(3)-COOMe [Peptide 1]”, the “height” value in series [1] is reported as 0.25-0.50 nm. In series [3], the “average thickness” value stood at 3.9±0.1 nm. In series [4], this compound returned a Density of 767 ± 4 Kg/m^3, a Mass/Area of 72.1 ± 0.4 ng/cm^2 and a Thickness of 9.11 ± 0.05 Å. The same compound came in with a contact angle in series [8] of 68.1 °.
“NH2-L-DOPA-L-(4F)Phe(2)-D-(4F)Phe(3)-COOMe [Peptide 2]”: in series [1], the “height” value is given as 0.20-0.48 nm. Also, in series [3], the “average thickness” value came out at 4.3±0.1 nm. In series [4], this compound yielded a Density of 824 Kg/m^3, a Mass/Area of 57 ± 3 ng/cm^2 and a Thickness of 7.3 ± 0.3 Å.

The record behind these values is US20180079912A1, “ANTIFOULING MATERIALS” (priority 2013, published 2018).
